Results as given in ChEMBL document CHEMBL5108027, “An unanticipated discovery of novel naphthalimidopropanediols as potential broad-spectrum antibacterial members” (Eur J Med Chem, 2022).
Values after ≈ are worked out from the molar mass of the structure shown.

Assays:
Type in all cases: functional
Enterococcus faecalis = assay: Antibacterial activity against Enterococcus faecalis measured by Muller-Hinton broth based microdilution assay
Staphylococcus aureus [1] = assay: Antibacterial activity against methicillin-resistant Staphylococcus aureus N315 measured by Muller-Hinton broth based microdilution assay
Klebsiella pneumoniae = assay: Antibacterial activity against Klebsiella pneumoniae measured by Muller-Hinton broth based microdilution assay
Escherichia coli [2] = assay: Antibacterial activity against Escherichia coli ATCC 25922 measured by Muller-Hinton broth based microdilution assay
Staphylococcus aureus [3] = assay: Antibacterial activity against Staphylococcus aureus ATCC 29213 measured by Muller-Hinton broth based microdilution assay
Staphylococcus aureus [4] = assay: Antibacterial activity against Staphylococcus aureus measured by Muller-Hinton broth based microdilution assay
Escherichia coli [5] = assay: Antibacterial activity against Escherichia coli measured by Muller-Hinton broth based microdilution assay
Pseudomonas aeruginosa [6] = assay: Antibacterial activity against Pseudomonas aeruginosa ATCC 27853 measured by Muller-Hinton broth based microdilution assay
Acinetobacter baumannii = assay: Antibacterial activity against Acinetobacter baumannii measured by Muller-Hinton broth based microdilution assay
Pseudomonas aeruginosa [7] = assay: Antibacterial activity against Pseudomonas aeruginosa measured by Muller-Hinton broth based microdilution assay
Staphylococcus aureus [8] = assay: Antibacterial activity against Staphylococcus aureus ATCC 25923 measured by Muller-Hinton broth based microdilution assay

O=C1c2cccc3c(N/N=C/c4ccccc4Cl)ccc(c23)C(=O)N1C(CO)CO
MIC (Enterococcus faecalis): 64 µg/mL (≈ 151 µM)
MIC (Staphylococcus aureus [1]): 64 µg/mL (≈ 151 µM)
MIC (Klebsiella pneumoniae): 16 µg/mL (≈ 37.7 µM)
MIC (Escherichia coli [2]): 64 µg/mL (≈ 151 µM)
MIC (Staphylococcus aureus [3]): 8 µg/mL (≈ 18.9 µM)
MIC (Staphylococcus aureus [4]): 64 µg/mL (≈ 151 µM)
MIC (Escherichia coli [5]): 128 µg/mL (≈ 302 µM)
MIC (Pseudomonas aeruginosa [6]): 32 µg/mL (≈ 75.5 µM)
MIC (Acinetobacter baumannii): 64 µg/mL (≈ 151 µM)
MIC (Pseudomonas aeruginosa [7]): 16 µg/mL (≈ 37.7 µM)
MIC (Staphylococcus aureus [8]): 32 µg/mL (≈ 75.5 µM)

CCCCCCCCn1cc(/C=N/Nc2ccc3c4c(cccc24)C(=O)N(C(CO)CO)C3=O)c2ccccc21
MIC (Enterococcus faecalis): 64 µg/mL (≈ 118 µM)
MIC (Staphylococcus aureus [1]): 64 µg/mL (≈ 118 µM)
MIC (Klebsiella pneumoniae): 16 µg/mL (≈ 29.6 µM)
MIC (Escherichia coli [2]): 128 µg/mL (≈ 237 µM)
MIC (Staphylococcus aureus [3]): 64 µg/mL (≈ 118 µM)
MIC (Staphylococcus aureus [4]): 32 µg/mL (≈ 59.2 µM)
MIC (Escherichia coli [5]): 32 µg/mL (≈ 59.2 µM)
MIC (Pseudomonas aeruginosa [6]): 64 µg/mL (≈ 118 µM)
MIC (Acinetobacter baumannii): 64 µg/mL (≈ 118 µM)
MIC (Pseudomonas aeruginosa [7]): 128 µg/mL (≈ 237 µM)
MIC (Staphylococcus aureus [8]): 16 µg/mL (≈ 29.6 µM)

CCCCCCCCCCCCCCCCn1cc(/C=N/Nc2ccc3c4c(cccc24)C(=O)N(C(CO)CO)C3=O)c2ccccc21
MIC (Enterococcus faecalis): 64 µg/mL (≈ 98 µM)
MIC (Staphylococcus aureus [1]): 64 µg/mL (≈ 98 µM)
MIC (Klebsiella pneumoniae): 32 µg/mL (≈ 49 µM)
MIC (Escherichia coli [2]): 64 µg/mL (≈ 98 µM)
MIC (Staphylococcus aureus [3]): 64 µg/mL (≈ 98 µM)
MIC (Staphylococcus aureus [4]): 8 µg/mL (≈ 12.3 µM)
MIC (Escherichia coli [5]): 32 µg/mL (≈ 49 µM)
MIC (Pseudomonas aeruginosa [6]): 32 µg/mL (≈ 49 µM)
MIC (Acinetobacter baumannii): 64 µg/mL (≈ 98 µM)
MIC (Pseudomonas aeruginosa [7]): 64 µg/mL (≈ 98 µM)
MIC (Staphylococcus aureus [8]): 32 µg/mL (≈ 49 µM)

CCCCCCCCCCCCn1cc(/C=N/Nc2ccc3c4c(cccc24)C(=O)N(C(CO)CO)C3=O)c2ccccc21
MIC (Enterococcus faecalis): 64 µg/mL (≈ 107 µM)
MIC (Staphylococcus aureus [1]): 64 µg/mL (≈ 107 µM)
MIC (Klebsiella pneumoniae): 64 µg/mL (≈ 107 µM)
MIC (Escherichia coli [2]): 64 µg/mL (≈ 107 µM)
MIC (Staphylococcus aureus [3]): 64 µg/mL (≈ 107 µM)
MIC (Staphylococcus aureus [4]): 8 µg/mL (≈ 13.4 µM)
MIC (Escherichia coli [5]): 32 µg/mL (≈ 53.6 µM)
MIC (Pseudomonas aeruginosa [6]): 32 µg/mL (≈ 53.6 µM)
MIC (Acinetobacter baumannii): 64 µg/mL (≈ 107 µM)
MIC (Pseudomonas aeruginosa [7]): 128 µg/mL (≈ 214 µM)
MIC (Staphylococcus aureus [8]): 32 µg/mL (≈ 53.6 µM)

O=C1c2cccc3c(N/N=C/c4ccccc4F)ccc(c23)C(=O)N1C(CO)CO
MIC (Enterococcus faecalis): 2 µg/mL (≈ 4.91 µM)
MIC (Staphylococcus aureus [1]): 32 µg/mL (≈ 78.5 µM)
MIC (Klebsiella pneumoniae): 32 µg/mL (≈ 78.5 µM)
MIC (Escherichia coli [2]): 32 µg/mL (≈ 78.5 µM)
MIC (Staphylococcus aureus [3]): 16 µg/mL (≈ 39.3 µM)
MIC (Staphylococcus aureus [4]): 8 µg/mL (≈ 19.6 µM)
MIC (Escherichia coli [5]): 32 µg/mL (≈ 78.5 µM)
MIC (Pseudomonas aeruginosa [6]): 8 µg/mL (≈ 19.6 µM)
MIC (Acinetobacter baumannii): 64 µg/mL (≈ 157 µM)
MIC (Pseudomonas aeruginosa [7]): 32 µg/mL (≈ 78.5 µM)
MIC (Staphylococcus aureus [8]): 64 µg/mL (≈ 157 µM)

CCn1cc(/C=N/Nc2ccc3c4c(cccc24)C(=O)N(C(CO)CO)C3=O)c2ccccc21
MIC (Enterococcus faecalis): 32 µg/mL (≈ 70.1 µM)
MIC (Staphylococcus aureus [1]): 64 µg/mL (≈ 140 µM)
MIC (Klebsiella pneumoniae): 8 µg/mL (≈ 17.5 µM)
MIC (Escherichia coli [2]): 32 µg/mL (≈ 70.1 µM)
MIC (Staphylococcus aureus [3]): 32 µg/mL (≈ 70.1 µM)
MIC (Staphylococcus aureus [4]): 8 µg/mL (≈ 17.5 µM)
MIC (Escherichia coli [5]): 16 µg/mL (≈ 35 µM)
MIC (Pseudomonas aeruginosa [6]): 32 µg/mL (≈ 70.1 µM)
MIC (Acinetobacter baumannii): 64 µg/mL (≈ 140 µM)
MIC (Pseudomonas aeruginosa [7]): 16 µg/mL (≈ 35 µM)
MIC (Staphylococcus aureus [8]): 16 µg/mL (≈ 35 µM)

COc1cc(/C=N/Nc2ccc3c4c(cccc24)C(=O)N(C(CO)CO)C3=O)ccc1O
MIC (Enterococcus faecalis): 8 µg/mL (≈ 18.4 µM)
MIC (Staphylococcus aureus [1]): 64 µg/mL (≈ 147 µM)
MIC (Klebsiella pneumoniae): 4 µg/mL (≈ 9.19 µM)
MIC (Escherichia coli [2]): 16 µg/mL (≈ 36.7 µM)
MIC (Staphylococcus aureus [3]): 16 µg/mL (≈ 36.7 µM)
MIC (Staphylococcus aureus [4]): 16 µg/mL (≈ 36.7 µM)
MIC (Escherichia coli [5]): 64 µg/mL (≈ 147 µM)
MIC (Pseudomonas aeruginosa [6]): 8 µg/mL (≈ 18.4 µM)
MIC (Acinetobacter baumannii): 64 µg/mL (≈ 147 µM)
MIC (Pseudomonas aeruginosa [7]): 64 µg/mL (≈ 147 µM)
MIC (Staphylococcus aureus [8]): 64 µg/mL (≈ 147 µM)

O=C1c2cccc3c(N/N=C/c4ccncc4)ccc(c23)C(=O)N1C(CO)CO
MIC (Enterococcus faecalis): 64 µg/mL (≈ 164 µM)
MIC (Staphylococcus aureus [1]): 64 µg/mL (≈ 164 µM)
MIC (Klebsiella pneumoniae): 64 µg/mL (≈ 164 µM)
MIC (Escherichia coli [2]): 64 µg/mL (≈ 164 µM)
MIC (Staphylococcus aureus [3]): 128 µg/mL (≈ 328 µM)
MIC (Staphylococcus aureus [4]): 4 µg/mL (≈ 10.2 µM)
MIC (Escherichia coli [5]): 32 µg/mL (≈ 82 µM)
MIC (Pseudomonas aeruginosa [6]): 1 µg/mL (≈ 2.56 µM)
MIC (Acinetobacter baumannii): 64 µg/mL (≈ 164 µM)
MIC (Pseudomonas aeruginosa [7]): 2 µg/mL (≈ 5.12 µM)
MIC (Staphylococcus aureus [8]): 64 µg/mL (≈ 164 µM)

Cc1ccc(/C=N/Nc2ccc3c4c(cccc24)C(=O)N(C(CO)CO)C3=O)cc1
MIC (Enterococcus faecalis): 64 µg/mL (≈ 159 µM)
MIC (Staphylococcus aureus [1]): 16 µg/mL (≈ 39.7 µM)
MIC (Klebsiella pneumoniae): 8 µg/mL (≈ 19.8 µM)
MIC (Escherichia coli [2]): 32 µg/mL (≈ 79.3 µM)
MIC (Staphylococcus aureus [3]): 4 µg/mL (≈ 9.91 µM)
MIC (Staphylococcus aureus [4]): 0.5 µg/mL (≈ 1.24 µM)
MIC (Escherichia coli [5]): 64 µg/mL (≈ 159 µM)
MIC (Pseudomonas aeruginosa [6]): 1 µg/mL (≈ 2.48 µM)
MIC (Acinetobacter baumannii): 64 µg/mL (≈ 159 µM)
MIC (Pseudomonas aeruginosa [7]): 64 µg/mL (≈ 159 µM)
MIC (Staphylococcus aureus [8]): 32 µg/mL (≈ 79.3 µM)

CCCCc1nc(Cl)c(/C=N/Nc2ccc3c4c(cccc24)C(=O)N(C(CO)CO)C3=O)[nH]1
MIC (Enterococcus faecalis): 32 µg/mL (≈ 68.1 µM)
MIC (Staphylococcus aureus [1]): 64 µg/mL (≈ 136 µM)
MIC (Klebsiella pneumoniae): 8 µg/mL (≈ 17 µM)
MIC (Escherichia coli [2]): 32 µg/mL (≈ 68.1 µM)
MIC (Staphylococcus aureus [3]): 32 µg/mL (≈ 68.1 µM)
MIC (Staphylococcus aureus [4]): 32 µg/mL (≈ 68.1 µM)
MIC (Escherichia coli [5]): 16 µg/mL (≈ 34 µM)
MIC (Pseudomonas aeruginosa [6]): 8 µg/mL (≈ 17 µM)
MIC (Acinetobacter baumannii): 64 µg/mL (≈ 136 µM)
MIC (Pseudomonas aeruginosa [7]): 64 µg/mL (≈ 136 µM)
MIC (Staphylococcus aureus [8]): 64 µg/mL (≈ 136 µM)
